From the NIST ThermoML archive (doi:10.1016/j.fluid.2018.09.026)
“And” between values parts separate entries of the source, which are not always exact repeats. Identical values can stand only once.

Conditions: Liquid; for mass density: Vibrating tube method; for viscosity: Vibrating wire viscometry

OCCOCCO [diethylene glycol]
Conditions | mass density | viscosity
283.15 K, 100 kPa | 1123.1 kg/m3 | –
283.15 K, 640 kPa | 1123.3 kg/m3 | –
283.15 K, 1080 kPa | 1123.5 kg/m3 | –
283.15 K, 1590 kPa | 1123.7 kg/m3 | –
283.15 K, 2140 kPa | 1124 kg/m3 | –
283.15 K, 3050 kPa | 1124.3 kg/m3 | –
283.15 K, 5050 kPa | 1125.2 kg/m3 | –
283.15 K, 6930 kPa | 1126 kg/m3 | –
283.15 K, 9930 kPa | 1127.2 kg/m3 | –
283.15 K, 14810 kPa | 1129.3 kg/m3 | –
283.15 K, 19760 kPa | 1131.3 kg/m3 | –
283.15 K, 24610 kPa | 1133.3 kg/m3 | –
283.15 K, 29600 kPa | 1135.2 kg/m3 | –
283.15 K, 34500 kPa | 1137.1 kg/m3 | –
283.15 K, 39420 kPa | 1139 kg/m3 | –
283.15 K, 44300 kPa | 1140.8 kg/m3 | –
283.15 K, 49180 kPa | 1142.6 kg/m3 | –
283.15 K, 54060 kPa | 1144.4 kg/m3 | –
283.15 K, 59030 kPa | 1146.1 kg/m3 | –
283.15 K, 63810 kPa | 1147.8 kg/m3 | –
283.15 K, 68760 kPa | 1149.5 kg/m3 | –
293.15 K, 100 kPa | 1115.9 kg/m3 | –
293.15 K, 570 kPa | 1116.1 kg/m3 | –
293.15 K, 1080 kPa | 1116.3 kg/m3 | –
293.15 K, 1530 kPa | 1116.6 kg/m3 | –
293.15 K, 2110 kPa | 1116.8 kg/m3 | –
293.15 K, 3080 kPa | 1117.2 kg/m3 | –
293.15 K, 5040 kPa | 1118.1 kg/m3 | –
293.15 K, 6990 kPa | 1118.9 kg/m3 | –
293.15 K, 9940 kPa | 1120.2 kg/m3 | –
293.15 K, 14840 kPa | 1122.3 kg/m3 | –
293.15 K, 19740 kPa | 1124.3 kg/m3 | –
293.15 K, 24680 kPa | 1126.4 kg/m3 | –
293.15 K, 29600 kPa | 1128.4 kg/m3 | –
293.15 K, 34530 kPa | 1130.3 kg/m3 | –
293.15 K, 39360 kPa | 1132.2 kg/m3 | –
293.15 K, 44320 kPa | 1134.1 kg/m3 | –
293.15 K, 49120 kPa | 1136 kg/m3 | –
293.15 K, 54090 kPa | 1137.8 kg/m3 | –
293.15 K, 58990 kPa | 1139.6 kg/m3 | –
293.15 K, 63820 kPa | 1141.3 kg/m3 | –
293.15 K, 68750 kPa | 1143 kg/m3 | –
293.23 K, 180 kPa | – | 34.67 mPa·s [middle of 4 runs]
293.23 K, 1170 kPa | – | 34.84 mPa·s [middle of 4 runs]
293.23 K, 2100 kPa | – | 34.99 mPa·s [middle of 5 runs]
293.23 K, 2110 kPa | – | 35.15 mPa·s
293.23 K, 5060 kPa | – | 35.84 mPa·s and 36.03 mPa·s and 36.04 mPa·s
293.23 K, 5070 kPa | – | 35.72 mPa·s
293.23 K, 10240 kPa | – | 37.39 mPa·s [middle of 4 runs]
293.23 K, 19990 kPa | – | 40.52 mPa·s [middle of 4 runs]
293.23 K, 29910 kPa | – | 43.47 mPa·s and 43.45 mPa·s
293.23 K, 29920 kPa | – | 43.5 mPa·s and 43.6 mPa·s
293.23 K, 40040 kPa | – | 47.04 mPa·s [middle of 5 runs]
293.23 K, 50530 kPa | – | 51.14 mPa·s [middle of 4 runs]
293.23 K, 69900 kPa | – | 58.55 mPa·s
293.23 K, 69990 kPa | – | 58.38 mPa·s
293.23 K, 70070 kPa | – | 58.52 mPa·s
303.15 K, 100 kPa | 1108.8 kg/m3 | –
303.15 K, 680 kPa | 1109 kg/m3 | –
303.15 K, 1130 kPa | 1109.2 kg/m3 | –
303.15 K, 1580 kPa | 1109.4 kg/m3 | –
303.15 K, 2120 kPa | 1109.7 kg/m3 | –
303.15 K, 3030 kPa | 1110.1 kg/m3 | –
303.15 K, 5040 kPa | 1111 kg/m3 | –
303.15 K, 6950 kPa | 1111.9 kg/m3 | –
303.15 K, 9960 kPa | 1113.2 kg/m3 | –
303.15 K, 14840 kPa | 1115.4 kg/m3 | –
303.15 K, 19740 kPa | 1117.5 kg/m3 | –
303.15 K, 24680 kPa | 1119.6 kg/m3 | –
303.15 K, 29610 kPa | 1121.6 kg/m3 | –
303.15 K, 34520 kPa | 1123.6 kg/m3 | –
303.15 K, 39380 kPa | 1125.6 kg/m3 | –
303.15 K, 44350 kPa | 1127.5 kg/m3 | –
303.15 K, 49140 kPa | 1129.4 kg/m3 | –
303.15 K, 54090 kPa | 1131.3 kg/m3 | –
303.15 K, 58990 kPa | 1133.1 kg/m3 | –
303.15 K, 63850 kPa | 1134.9 kg/m3 | –
303.15 K, 68760 kPa | 1136.6 kg/m3 | –
303.27 K, 180 kPa | – | 21.44 mPa·s [middle of 5 runs]
303.27 K, 190 kPa | – | 21.49 mPa·s
303.27 K, 1070 kPa | – | 21.42 mPa·s
303.27 K, 1080 kPa | – | 21.42 mPa·s and 21.5 mPa·s and 21.48 mPa·s
303.27 K, 2100 kPa | – | 21.72 mPa·s and 21.69 mPa·s
303.27 K, 5160 kPa | – | 22.14 mPa·s and 22.35 mPa·s and 22.13 mPa·s
303.27 K, 5170 kPa | – | 22.08 mPa·s
303.27 K, 10180 kPa | – | 22.97 mPa·s
303.27 K, 10190 kPa | – | 23.05 mPa·s and 23.2 mPa·s and 23 mPa·s
303.27 K, 20040 kPa | – | 24.7 mPa·s and 25.05 mPa·s and 24.87 mPa·s
303.27 K, 30920 kPa | – | 26.77 mPa·s [middle of 5 runs]
303.27 K, 40100 kPa | – | 28.49 mPa·s [middle of 5 runs]
303.27 K, 50040 kPa | – | 30.4 mPa·s
303.27 K, 50050 kPa | – | 30.52 mPa·s and 30.43 mPa·s
303.27 K, 50060 kPa | – | 30.59 mPa·s
303.27 K, 50070 kPa | – | 30.49 mPa·s
303.27 K, 68860 kPa | – | 34.35 mPa·s
303.27 K, 68920 kPa | – | 34.55 mPa·s
303.27 K, 69030 kPa | – | 34.74 mPa·s
303.27 K, 69090 kPa | – | 34.81 mPa·s
313.15 K, 100 kPa | 1101.7 kg/m3 and 1101.6 kg/m3 | –
313.15 K, 640 kPa | 1101.8 kg/m3 | –
313.15 K, 1140 kPa | 1102.1 kg/m3 | –
313.15 K, 1640 kPa | 1102.3 kg/m3 | –
313.15 K, 2100 kPa | 1102.5 kg/m3 | –
313.15 K, 3090 kPa | 1103 kg/m3 | –
313.15 K, 5130 kPa | 1103.9 kg/m3 | –
313.15 K, 6960 kPa | 1104.8 kg/m3 | –
313.15 K, 9960 kPa | 1106.1 kg/m3 | –
313.15 K, 14940 kPa | 1108.4 kg/m3 | –
313.15 K, 19750 kPa | 1110.6 kg/m3 | –
313.15 K, 24640 kPa | 1112.7 kg/m3 | –
313.15 K, 29640 kPa | 1114.8 kg/m3 | –
313.15 K, 34510 kPa | 1116.9 kg/m3 | –
313.15 K, 39340 kPa | 1118.9 kg/m3 | –
313.15 K, 44340 kPa | 1120.9 kg/m3 | –
313.15 K, 49190 kPa | 1123.2 kg/m3 | –
313.15 K, 54020 kPa | 1124.7 kg/m3 | –
313.15 K, 59030 kPa | 1126.7 kg/m3 | –
313.15 K, 63880 kPa | 1128.5 kg/m3 | –
313.15 K, 68820 kPa | 1130.3 kg/m3 | –
313.38 K, 200 kPa | – | 14.25 mPa·s and 14.24 mPa·s and 14.26 mPa·s
313.38 K, 210 kPa | – | 14.23 mPa·s [middle of 5 runs]
313.38 K, 1170 kPa | – | 14.28 mPa·s and 14.27 mPa·s
313.38 K, 1180 kPa | – | 14.33 mPa·s
313.38 K, 2300 kPa | – | 14.28 mPa·s
313.38 K, 2310 kPa | – | 14.5 mPa·s
313.38 K, 2320 kPa | – | 14.38 mPa·s
313.38 K, 5060 kPa | – | 14.69 mPa·s and 14.72 mPa·s
313.38 K, 5070 kPa | – | 14.63 mPa·s and 14.65 mPa·s
313.38 K, 5080 kPa | – | 14.64 mPa·s
313.38 K, 10280 kPa | – | 15.26 mPa·s
313.38 K, 10290 kPa | – | 15.13 mPa·s
313.38 K, 10300 kPa | – | 15.2 mPa·s
313.38 K, 20100 kPa | – | 16.33 mPa·s
313.38 K, 20110 kPa | – | 16.16 mPa·s and 16.17 mPa·s
313.38 K, 30110 kPa | – | 17.27 mPa·s and 17.34 mPa·s and 17.33 mPa·s
313.38 K, 40110 kPa | – | 18.5 mPa·s [middle of 4 runs]
313.38 K, 50110 kPa | – | 19.66 mPa·s and 19.68 mPa·s
313.38 K, 50120 kPa | – | 19.64 mPa·s
313.38 K, 50130 kPa | – | 19.61 mPa·s
313.38 K, 69490 kPa | – | 22.11 mPa·s
313.38 K, 69530 kPa | – | 22.04 mPa·s
313.38 K, 69580 kPa | – | 21.98 mPa·s
323.15 K, 100 kPa | 1094.3 kg/m3 | –
323.15 K, 680 kPa | 1094.6 kg/m3 | –
323.15 K, 1130 kPa | 1094.8 kg/m3 | –
323.15 K, 1570 kPa | 1095 kg/m3 | –
323.15 K, 2100 kPa | 1095.2 kg/m3 | –
323.15 K, 3080 kPa | 1095.7 kg/m3 | –
323.15 K, 5080 kPa | 1096.7 kg/m3 | –
323.15 K, 7000 kPa | 1097.6 kg/m3 | –
323.15 K, 9950 kPa | 1099 kg/m3 | –
323.15 K, 14890 kPa | 1101.4 kg/m3 | –
